{
  "source": "patent US20070128217A1",
  "about": "(priority 2003, published 2007)",
  "key": {"[1]": {"tested_on": "antibodies in sera from SARS patients (sera 1a, 1b, 2, 6, 37, 62, London, SARS-yellow, SARS-green)", "format": "binding, human", "set-up": "Binding of serum 6 to linear peptides of protein X1 of SARS-CoV Urbani / Binding of serum 37 to linear peptides of protein X1 of SARS-CoV Urbani / Binding of serum 6 to looped/cyclic peptide (PEPSCAN-ELISA) / Binding of serum 37 to looped/cyclic peptide (PEPSCAN-ELISA) / Binding of serum 37 to looped/cyclic peptides of protein X1 of SARS-CoV Urbani / Binding of serum 6 to linear peptides of protein X2 / Binding of serum 37 to linear peptides of protein X2 / Binding of serum 37 to looped/cyclic peptides of protein X2 of SARS-CoV Urbani / Binding of serum 6 to linear peptides of protein M of SARS-CoV Urbani / Binding of serum 37 to linear peptides of protein M of SARS-CoV Urbani / Binding of serum 6 to looped/cyclic peptides of protein M of SARS-CoV Urbani / Binding of serum 37 to looped/cyclic peptides of protein M of SARS-CoV Urbani / Binding of serum 6 to linear peptides of protein X3 of SARS-CoV Urbani / Binding of serum 37 to linear peptides of protein X3 of SARS-CoV Urbani / Binding of serum 37 to looped/cyclic peptides of protein X3 of SARS-CoV Urbani / Binding of serum 6 to linear peptides of protein X4 of SARS-CoV Urbani / Binding of serum 37 to linear peptides of protein X4 of SARS-CoV Urbani / Binding of serum 37 to looped/cyclic peptides of protein X4 of SARS-CoV Urbani / Binding of serum 6 to linear peptides of protein X5 of SARS-CoV Urbani / Binding of serum 37 to linear peptides of protein X5 of SARS-CoV Urbani / Binding of serum 37 to looped/cyclic peptides of protein X5 of SARS-CoV Urbani / Binding of serum 6 to linear peptides of protein N of SARS-CoV Urbani / Binding of serum 37 to linear peptides of protein N of SARS-CoV Urbani / Binding of serum 6 to linear peptide (PEPSCAN-ELISA) / Binding of serum 1a to looped/cyclic peptides of protein N of SARS-CoV Urbani / Binding of serum 1b to looped/cyclic peptides of protein N of SARS-CoV Urbani / Binding of serum 2 to looped/cyclic peptides of protein N of SARS-CoV Urbani / Binding of serum 6 to looped/cyclic peptides of protein N of SARS-CoV Urbani / Binding of serum 37 to looped/cyclic peptides of protein N of SARS-CoV Urbani / Binding of serum 62 to looped/cyclic peptides of protein N of SARS-CoV Urbani / Binding of serum London to looped/cyclic peptides of protein N of SARS-CoV Urbani / Binding of serum SARS-green to looped/cyclic peptides of protein N of SARS-CoV Urbani: unit not given here"}, "[2]": {"tested_on": "control sera (pooled serum of ten healthy LUMC hospital workers; commercial negative donor pooled serum from the Dutch bloodbank)", "format": "binding, human", "set-up": "Binding of Control serum LUMC to linear peptides / Binding of Control serum Blood-bank to linear peptides / Binding of Control serum LUMC to looped peptides / Binding of Control Serum Blood-Bank to Looped peptides / Binding of Control serum LUMC to linear peptides of the protein M of SARS-CoV Urbani / Binding of Control serum Blood-bank to linear peptides of the protein M of SARS-CoV Urbani / Binding of Control serum LUMC to looped peptides of the protein M of SARS-CoV Urbani / Binding of Control Serum Blood-Bank to Looped peptides of the protein M of SARS-CoV Urbani: unit not given here"}, "[3]": {"tested_on": "rabbit serum obtained by immunizing a rabbit with the SARS-CoV strain Frankfurt 1", "format": "binding", "set-up": "Binding of a rabbit serum to linear peptides / Binding of a rabbit serum to looped peptides / Rabbit serum linear peptides / Rabbit serum looped peptides / Binding of a rabbit serum to linear peptides of protein N of SARS-CoV Urbani (Rabbit serum linear peptides) / Binding of a rabbit serum to looped/cyclic peptides of protein N of SARS-CoV Urbani (Rabbit serum looped peptides): unit not given here"}},
  "data": [
    {"sequence": "LFLAWIMLLQFAYSN", "values": [
      {"measurement": "Binding of serum 1a to linear peptides of protein M of SARS-CoV Urbani", "setting": "[1]", "value": 0.7},
      {"measurement": "Binding of serum 1a to looped/cyclic peptides of protein M of SARS-CoV Urbani", "setting": "[1]", "value": 0.8},
      {"measurement": "Binding of serum 1b to linear peptides of protein M of SARS-CoV Urbani", "setting": "[1]", "value": 0.5},
      {"measurement": "Binding of serum 1b to looped/cyclic peptides of protein M of SARS-CoV Urbani", "setting": "[1]", "value": 0.6},
      {"measurement": "Binding of serum 2 to linear peptides of protein M of SARS-CoV Urbani", "setting": "[1]", "value": 0.3},
      {"measurement": "Binding of serum 2 to looped/cyclic peptides of protein M of SARS-CoV Urbani", "setting": "[1]", "value": 0.6},
      {"measurement": "Binding of serum 6 to linear peptides of protein M of SARS-CoV Urbani", "setting": "[1]", "value": 0.3},
      {"measurement": "Binding of serum 6 to looped/cyclic peptides of protein M of SARS-CoV Urbani", "setting": "[1]", "value": 0.7},
      {"measurement": "Binding of serum 37 to linear peptides of protein M of SARS-CoV Urbani", "setting": "[1]", "value": 0.6},
      {"measurement": "Binding of serum 37 to looped/cyclic peptides of protein M of SARS-CoV Urbani", "setting": "[1]", "value": 0.7},
      {"measurement": "Binding of serum 62 to linear peptides of protein M of SARS-CoV Urbani", "setting": "[1]", "value": 0.7},
      {"measurement": "Binding of serum 62 to looped/cyclic peptides of protein M of SARS-CoV Urbani", "setting": "[1]", "value": 0.7},
      {"measurement": "Binding of serum London to linear peptides of protein M of SARS-CoV Urbani", "setting": "[1]", "value": 0.2},
      {"measurement": "Binding of serum London to looped/cyclic peptides of protein M of SARS-CoV Urbani", "setting": "[1]", "value": 0.3},
      {"measurement": "Binding of serum SARS-green to linear peptides of protein M of SARS-CoV Urbani", "setting": "[1]", "value": 0.2},
      {"measurement": "Binding of serum SARS-green to looped/cyclic peptides of protein M of SARS-CoV Urbani", "setting": "[1]", "value": 0.3},
      {"measurement": "Binding of serum SARS-yellow to linear peptides of protein M of SARS-CoV Urbani", "setting": "[1]", "value": 0.0},
      {"measurement": "Binding of serum SARS-yellow to looped/cyclic peptides of protein M of SARS-CoV Urbani", "setting": "[1]", "value": 0.6},
      {"measurement": "Binding of Control Serum Blood-Bank to Looped peptides of the protein M of SARS-CoV Urbani", "setting": "[2]", "value": 0.7},
      {"measurement": "Binding of Control serum Blood-bank to linear peptides of the protein M of SARS-CoV Urbani", "setting": "[2]", "value": 0.5},
      {"measurement": "Binding of Control serum LUMC to linear peptides of the protein M of SARS-CoV Urbani", "setting": "[2]", "value": 0.2},
      {"measurement": "Binding of Control serum LUMC to looped peptides of the protein M of SARS-CoV Urbani", "setting": "[2]", "value": 0.6},
      {"measurement": "Rabbit serum linear peptides", "setting": "[3]", "value": 0.7},
      {"measurement": "Rabbit serum looped peptides", "setting": "[3]", "value": 0.3}
    ]},
    {"sequence": "CWLCWKCKSKNPLLY", "values": [
      {"measurement": "Binding of serum 1a to looped/cyclic peptide (PEPSCAN-ELISA)", "setting": "[1]", "value": 0.7},
      {"measurement": "Binding of serum 1b to looped/cyclic peptide (PEPSCAN-ELISA)", "setting": "[1]", "value": 0.4},
      {"measurement": "Binding of serum 2 to looped/cyclic peptide (PEPSCAN-ELISA)", "setting": "[1]", "value": 0.5},
      {"measurement": "Binding of serum 6 to looped/cyclic peptide (PEPSCAN-ELISA)", "setting": "[1]", "value": 0.7},
      {"measurement": "Binding of serum 37 to looped/cyclic peptide (PEPSCAN-ELISA)", "setting": "[1]", "value": 0.7},
      {"measurement": "Binding of serum 62 to looped/cyclic peptide (PEPSCAN-ELISA)", "setting": "[1]", "value": 0.7},
      {"measurement": "Binding of serum London to looped/cyclic peptide (PEPSCAN-ELISA)", "setting": "[1]", "value": 0.3},
      {"measurement": "Binding of serum SARS-green to looped/cyclic peptide (PEPSCAN-ELISA)", "setting": "[1]", "value": 0.3},
      {"measurement": "Binding of serum SARS-yellow to looped/cyclic peptide (PEPSCAN-ELISA)", "setting": "[1]", "value": 0.5},
      {"measurement": "Recognition of the peptide by sera of SARS-CoV infected individuals, and form (linear, looped/cyclic) in which it is recognized", "setting": "[1]", "value": "recognized in linear form"},
      {"measurement": "Binding of Control Serum Blood-Bank to Looped peptides", "setting": "[2]", "value": 0.6},
      {"measurement": "Binding of Control serum Blood-bank to linear peptides", "setting": "[2]", "value": 0.9},
      {"measurement": "Binding of Control serum LUMC to linear peptides", "setting": "[2]", "value": 0.7},
      {"measurement": "Binding of Control serum LUMC to looped peptides", "setting": "[2]", "value": 0.7},
      {"measurement": "Binding of a rabbit serum to linear peptides", "setting": "[3]", "value": 0.2},
      {"measurement": "Binding of a rabbit serum to looped peptides", "setting": "[3]", "value": 0.7}
    ]},
    {"sequence": "LPFGWLVIGVAFLAV", "values": [
      {"measurement": "Binding of serum 1a to linear peptides of protein X1 of SARS-CoV Urbani", "setting": "[1]", "value": 0.8},
      {"measurement": "Binding of serum 1a to looped/cyclic peptide (PEPSCAN-ELISA)", "setting": "[1]", "value": 0.5},
      {"measurement": "Binding of serum 1b to linear peptides of protein X1 of SARS-CoV Urbani", "setting": "[1]", "value": 0.6},
      {"measurement": "Binding of serum 1b to looped/cyclic peptide (PEPSCAN-ELISA)", "setting": "[1]", "value": 0.3},
      {"measurement": "Binding of serum 2 to linear peptides of protein X1 of SARS-CoV Urbani", "setting": "[1]", "value": 0.7},
      {"measurement": "Binding of serum 2 to looped/cyclic peptide (PEPSCAN-ELISA)", "setting": "[1]", "value": 0.4},
      {"measurement": "Binding of serum 6 to linear peptides of protein X1 of SARS-CoV Urbani", "setting": "[1]", "value": 0.5},
      {"measurement": "Binding of serum 6 to looped/cyclic peptide (PEPSCAN-ELISA)", "setting": "[1]", "value": 0.3},
      {"measurement": "Binding of serum 37 to linear peptides of protein X1 of SARS-CoV Urbani", "setting": "[1]", "value": 0.7},
      {"measurement": "Binding of serum 37 to looped/cyclic peptide (PEPSCAN-ELISA)", "setting": "[1]", "value": 0.6},
      {"measurement": "Binding of serum 62 to linear peptides of protein X1 of SARS-CoV Urbani", "setting": "[1]", "value": 0.8},
      {"measurement": "Binding of serum 62 to looped/cyclic peptide (PEPSCAN-ELISA)", "setting": "[1]", "value": 0.6},
      {"measurement": "Binding of serum London to linear peptides of protein X1 of SARS-CoV Urbani", "setting": "[1]", "value": 0.3},
      {"measurement": "Binding of serum London to looped/cyclic peptide (PEPSCAN-ELISA)", "setting": "[1]", "value": 0.2},
      {"measurement": "Binding of serum SARS-green to linear peptides of protein X1 of SARS-CoV Urbani", "setting": "[1]", "value": 0.3},
      {"measurement": "Binding of serum SARS-green to looped/cyclic peptide (PEPSCAN-ELISA)", "setting": "[1]", "value": 0.3},
      {"measurement": "Binding of serum SARS-yellow to linear peptides of protein X1 of SARS-CoV Urbani", "setting": "[1]", "value": 0.7},
      {"measurement": "Binding of serum SARS-yellow to looped/cyclic peptide (PEPSCAN-ELISA)", "setting": "[1]", "value": 0.3},
      {"measurement": "Binding of Control Serum Blood-Bank to Looped peptides", "setting": "[2]", "value": 0.5},
      {"measurement": "Binding of Control serum Blood-bank to linear peptides", "setting": "[2]", "value": 0.7},
      {"measurement": "Binding of Control serum LUMC to linear peptides", "setting": "[2]", "value": 0.7},
      {"measurement": "Binding of Control serum LUMC to looped peptides", "setting": "[2]", "value": 0.4},
      {"measurement": "Binding of a rabbit serum to linear peptides", "setting": "[3]", "value": 2.0},
      {"measurement": "Binding of a rabbit serum to looped peptides", "setting": "[3]", "value": 0.5}
    ]}
  ]
}
